Tests used:
Type in all cases: biochemical
hCA-I [1] = molecular target: T1, hCA-I (Homo sapiens, UniProt P00915); assay: CO2-hydratase activity assay (Wilbur and Anderson), hCA-I; settings: hCA-I purified from human erythrocytes; CO2 hydration
T1 construct: Purification of isoenzymes hCA-I and hCA-II from human erythrocytes; from tissue; host or cells: human erythrocytes (blood)
Method: (§1) In order to purify hCA-I and hCA-II isoenzymes, first, human blood was centrifuged at 1500 rpm for 20 min, and after the removal of the plasma, the erythrocytes were washed with an isotonic solution (0.9% NaCl). After that, the erythrocytes were lysed with 1.5 volume of ice-cold water. The lysate was centrifuged at 20 000 rpm for 30 min to remove cell membranes and non-lysed cells. […] After extensive washing with 25 mM tris–HCl/22 mM Na2SO4 (pH 8.7), the hCA-I and hCA-II isoenzymes were eluted with 1.0 M NaCl/25 mM Na2HPO4 (pH 6.3) and 0.1 M CH3COONa/0.5 M NaClO4 (pH 5.6).[45]^,[46] The amount of purified protein was estimated by the Bradford method[47] and SDS-PAGE was carried out to determine whether the elute containing the enzyme[48] (Supplemental Figure 1).
(§2) Carbonic anhydrase activity was assayed by following the hydration of CO2 according to the method described by Wilbur and Anderson.[49] CO2-hydratase activity as an enzyme unit (EU) was calculated by using the equation ((t0−tc)/tc) where t0 and tc are the times for pH change of the nonenzymatic and the enzymatic reactions, respectively.

hCA-I [2] = molecular target: T1, hCA-I; assay: Esterase activity assay (4-nitrophenylacetate, 348 nm), hCA-I; settings: hCA-I purified from human erythrocytes, 25 °C, pH 7.4
Method: as §1
(§3) The enzymatic reaction, in a total volume of 3.0 mL, contained 1.4 mL of 0.05 M tris–SO4 buffer (pH 7.4), 1 mL of 3 mM 4-nitrophenylacetate, 0.5 mL H2O and 0.1 mL enzyme solution. A reference measurement was obtained by preparing the same cuvette without enzyme solution.
(§4) The method for determination of Ki values is described elsewhere.[52–56] […] Regression analysis graphs were drawn by plotting inhibitor concentrations versus enzyme activity by using Microsoft Excel Program.

hCA-II [3] = molecular target: T2, hCA-II (Homo sapiens, UniProt P00918); assay: Esterase activity assay (4-nitrophenylacetate, 348 nm), hCA-II; settings: hCA-II purified from human erythrocytes, 25 °C, pH 7.4
T2 construct: Purification of isoenzymes hCA-I and hCA-II from human erythrocytes; from tissue; host or cells: human erythrocytes (blood)
Method: as §1, §3, §4

hCA-I [4] = molecular target: T1, hCA-I; assay: Determination of Ki values (esterase activity, Lineweaver–Burk), hCA-I; settings: five substrate concentrations, Lineweaver–Burk plot
Method: as §1, §4

hCA-II [5] = molecular target: T2, hCA-II; assay: Determination of Ki values (esterase activity, Lineweaver–Burk), hCA-II; settings: five substrate concentrations, Lineweaver–Burk plot
Method: as §1, §4

hCA-II [6] = molecular target: T2, hCA-II; assay: CO2-hydratase activity assay (Wilbur and Anderson), hCA-II; settings: hCA-II purified from human erythrocytes; CO2 hydration
Method: as §1, §2

T1 sequence (P00915 whole entry): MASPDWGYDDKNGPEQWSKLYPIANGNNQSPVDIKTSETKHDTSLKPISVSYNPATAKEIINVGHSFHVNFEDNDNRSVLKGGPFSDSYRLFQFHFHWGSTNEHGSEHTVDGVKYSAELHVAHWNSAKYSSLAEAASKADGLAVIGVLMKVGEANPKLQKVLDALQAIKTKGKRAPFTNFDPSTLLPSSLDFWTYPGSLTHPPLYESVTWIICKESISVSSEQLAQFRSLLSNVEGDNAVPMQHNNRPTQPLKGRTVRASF

For `CCOC(=O)c1c(C(=O)Nc2nnc(S(N)(=O)=O)s2)nn(-c2cccc([N+](=O)[O-])c2)c1-c1ccccc1` [compound 1, ethyl 1-(3-nitrophenyl)-5-phenyl-3-((5-sulfamoyl-1,3,4-thiadiazol-2-yl)carbamoyl)-1H-pyrazole-4-carboxylate], the IC50 (hCA-I [1]) was 1400 nM, the IC50 (hCA-I [2]) was 2800 nM and the IC50 (hCA-II [3]) was 5600 nM. It also gave a Ki (hCA-I [4]) of 1100 nM, a Ki (hCA-II [5]) of 5300 nM and an IC50 (hCA-II [6]) of 900 nM.
